The record followed here is patent publication US6258837A, “Neuropeptide Y receptor antagonist” (Banyu Pharmaceutical Co., Ltd., priority 1997, dated 2001).

Molecules are shown by their SMILES.

Data set [1] relates to SD male rats. Kind of data set: acute toxicity test. The data set is classed as in vivo, rat. The following applies: 500 mg/kg oral. Here is the method: A compound to be tested in an amount of 500 mg/kg was orally administered to each of SD male rats (10-week-old; 300 to 400 g). After immediately, 5 minutes, 30 minutes, 1 hour, 2 hours, 4 hours, 6 hours, 8 hours and 24 hours from the administration, the condition of each rat was observed. And, after 24 hours from the administration, the rat was killed by dehematizing via carotid artery and then laparotomized in order to observe the presence or absence of any change in abdominal organs by the naked eye. In this connection, the compound to be tested was administered in a dose of 5 ml/kg after suspending in a 0.5% aqueous methyl cellulose solution.

Data set [2] addresses T1, human NPY Y5 receptor (Homo sapiens, UniProt Q15761).
T1 construct: expressed in transfected cells; host or cells: COS-7, CHO and LM(tk-)
T1 sequence (Q15761 1-445): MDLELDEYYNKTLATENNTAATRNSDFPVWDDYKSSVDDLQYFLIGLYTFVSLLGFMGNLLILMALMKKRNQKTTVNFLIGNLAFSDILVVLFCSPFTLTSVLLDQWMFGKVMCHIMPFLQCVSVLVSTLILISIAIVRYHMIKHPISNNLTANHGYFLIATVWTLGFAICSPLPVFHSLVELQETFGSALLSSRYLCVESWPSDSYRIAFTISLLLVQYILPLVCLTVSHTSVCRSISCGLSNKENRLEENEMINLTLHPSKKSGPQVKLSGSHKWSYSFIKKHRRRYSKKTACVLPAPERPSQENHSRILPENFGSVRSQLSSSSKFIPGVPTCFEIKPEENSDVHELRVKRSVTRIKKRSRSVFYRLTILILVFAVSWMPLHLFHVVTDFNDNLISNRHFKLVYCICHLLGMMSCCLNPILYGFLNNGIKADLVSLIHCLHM
Kind of data set: test of inhibition of NPY binding ([125I]peptide YY binding to membranes of cells expressing the NPY Y5 receptor). From the text:
cDNA Sequence encoding a human NPY Y5 receptor [International Publication WO 96/16542] was cloned into expression vectors pcDNA3, pRc/RSV (manufactured by Invitrogen) and pCI-neo (manufactured by Promega). Using the cationic lipid method [see Proceedings of the National Academy of Science of the United States of America, vol.84, p.7413 (1987)], host cells COS-7, CHO and LM(tk-) (American Type Culture Collection) were transfected with the thus prepared expression vectors to obtain cells in which the NPY Y5 receptor had been expressed.
After washing with 50 mM Tris buffer, pH 7.4, containing 0.3% BSA, radioactivity on the glass filter was measured using a gamma counter. Non-specific binding was measured in the presence of 1 μM of peptide YY to calculate a concentration of each compound to be tested which concentration is needed to inhibit 50% of the specific binding of the peptide YY (IC50 value) [see Endocrinology, vol.131, p.2090 (1992)].

The test system of data set [3] is SD male rats. Kind of data set: test of inhibition of feeding behavior induced by bPP. The following applies: oral, one hour before bPP (5 μg/head/10 μl, lateral cerebral ventricle); food intake during two hours. The class given is in vivo, rat. As to the method: Under pentobarbital anesthesia (single intraperitoneal injection of 50 mg/kg), a chronic guide cannula (outer diameter 0.8 mm; inner diameter 0.5 mm; length 10 mm) was stereotactically inserted in a right lateral cerebral ventricle of each of SD male rats (7 to 8-week-old; 200 to 300 g) and fixed using a dental resin. A tip of the guide cannula was positioned 0.9 mm behind a bregma, 1.2 mm at the right of a median line and in the depth of 1.5 mm from the brain surface. An inner needle was inserted such that its tip projected from the tip of the guide cannula by about 2 mm and arrived to a lateral cerebral ventricle. After a recovery period of about one week, a bovine pancreatic polypeptide (bpp, 5 μg/head/10 μl) was administered to the lateral cerebral ventricle. A compound to be tested was orally administered one hour before the administration of bpp and food intake during two hours from the administration was measured. In this connection, the compound to be tested was administered after dissolving in a 0.5% aqueous methyl cellulose solution and bpp was administered after dissolving in 10 mM phosphate buffered saline.

Take `CC1(C)CC(=O)C(C2C3=C(CC(C)(C)CC3=O)Oc3ccccc32)C(=O)C1` (racemic) [compound [I], 3,3-dimethyl-9-(4,4-dimethyl-2,6-dioxo-cyclohexyl)-1-oxo-1,2,3,4-tetrahydroxanthene]: the “change in abdominal organs observed by the naked eye (acute toxicity)” value in data set [1] (24 hours after administration) is recorded as “abdominal organs were observed to be unchanged”. Also, the “general health of each rat (acute toxicity)” value in data set [1] (until 24 hours after administration) is “no abnormality in general health of each rat was observed”. The IC50 in data set [2] ([125I] peptide YY, 25° C., 2 hours, pH 7.4, membrane preparations, read-out: concentration needed to inhibit 50% of the specific binding of the peptide YY (IC50 value)) is 27 nM. Besides, the “inhibition of the binding of the peptide YY to the NPY Y5 receptor (in words)” value in data set [2] (peptide YY (a homologue of NPY)) is given as “strongly inhibited the binding”. Besides, the “inhibition of the increase in food intake induced by bPP” value in data set [3] was “significantly inhibits the increase in food intake”.
